In ChEMBL document CHEMBL3751793, “Preparation of N-Phenyl-lactam Derivatives Capable of Stimulating Neurogenesis and Their Use in the Treatment of Neurological Disorders” (2015) one finds EC150 data, which are given here for 18 compounds.

This test concerns NSC. Put plainly: Increase in cell proliferation of human NSC cells assessed as increase in ATP level after 4 days by CelltiterGlo assay. It counts as functional. In general terms: In ATP-based viability assays light output follows the ATP content of the culture.
Take `COc1cc(N2CCC(c3cccc(Cl)c3)C2=O)ccc1-c1cn[nH]c1` (stereo not drawn): the EC150 came out at 65.9 nM. On to `COc1cccc(C2CCN(c3ccc(-c4cnco4)c(OC)c3)C2=O)c1` (stereo not drawn), for which the EC150 is given as 81.4 nM. Consider `COc1cccc(C2CCN(c3ccc(-c4cn[nH]c4)c(OC)c3)C2=O)c1` (stereo not drawn), for which the EC150 came to 29.9 nM. For the compound `COc1cc(N2CCN(Cc3cccc(OC(F)(F)F)c3)C2=O)ccc1-c1cn[nH]c1`, the EC150 is recorded as 9.2 nM. In the case of `COc1cccc(C2CCN(c3ccc(-c4ccncc4)cc3)C2=O)c1` (stereo not drawn), the EC150 is 15.5 nM. The same measure for `COc1cc(N2CCN(Cc3ccccc3C(F)(F)F)C2=O)ccc1-c1ccncc1`: 35.1 nM; for `COc1cc(N2CCC(c3ccccc3)C2=O)ccc1-c1cn[nH]c1` (stereo not drawn): 41.4 nM. Take `COc1cccc(CN2CCN(c3ccc(-c4cn[nH]c4)c(OC)c3)C2=O)c1`: the EC150 stood at 23.9 nM. The same measure for `COc1cccc(CN2CCN(c3ccc(-c4cn[nH]c4)c(F)c3)C2=O)c1`: 15.7 nM; for `COc1cc(N2CCN(Cc3cccc(F)c3)C2=O)ccc1-c1cn[nH]c1`: 47 nM. Regarding `CCOc1cccc(CN2CCN(c3ccc(-c4cn[nH]c4)c(OC)c3)C2=O)c1`, the EC150 was found to be 73.9 nM. As to `COc1cc(N2CCN(Cc3cccc(C(F)(F)F)c3)C2=O)ccc1-c1cn[nH]c1`, the EC150 is 8.6 nM. Take `COc1cc(N2CCN(Cc3cccc(C)c3)C2=O)ccc1-c1ccncc1`: the EC150 is 29.8 nM.

Take `COc1cc(N2CCN(Cc3ccncc3)C2=O)ccc1-c1cn[nH]c1`: the EC150 is on record as 42 nM. Consider `COc1cccc(C2CCN(c3ccc(-c4ccncc4)c(OC)c3)C2=O)c1` (stereo not drawn), for which the EC150 came to 61.3 nM. As for `COc1cccc(CN2CCN(c3ccc(-c4cn[nH]c4)cc3F)C2=O)c1`, the EC150 stood at 41.6 nM. Regarding `O=C1C(c2ccc(F)cc2)CCN1c1ccc(-c2cn[nH]c2)cc1` (stereo not drawn), the EC150 was 41.7 nM. As to `COc1cc(N2CCC(c3cccc(F)c3)C2=O)ccc1-c1cn[nH]c1` (stereo not drawn), the EC150 came out at 77.6 nM.
